According to the NIST ThermoML archive (doi:10.1016/j.fluid.2013.09.036):

What was measured:
[1] = xn = mol fraction of the nth substance listed; conditions: Liquid, Other PVT measurement
[2] = 101.33 kPa, Liquid; for mass density: Vibrating tube method

CCC[N+]1(C)CCCC1.O=S(=O)([N-]S(=O)(=O)C(F)(F)F)C(F)(F)F + O=C=O
[1]
Conditions | molar volume [m3/mol]
298.15 K, 525.5 kPa, x2 = 0.134 | 0.0002522
298.15 K, 1123.1 kPa, x2 = 0.255 | 0.0002222
298.15 K, 1476.5 kPa, x2 = 0.316 | 0.0002071
298.15 K, 1913.1 kPa, x2 = 0.376 | 0.0001924
298.15 K, 2237.6 kPa, x2 = 0.418 | 0.000182
298.15 K, 2800.7 kPa, x2 = 0.478 | 0.0001674
298.15 K, 3281.6 kPa, x2 = 0.523 | 0.0001565
298.15 K, 3998.7 kPa, x2 = 0.578 | 0.0001431
298.15 K, 4567.3 kPa, x2 = 0.616 | 0.0001339
313.15 K, 567.7 kPa, x2 = 0.113 | 0.0002606
313.15 K, 1217.5 kPa, x2 = 0.218 | 0.0002344
313.15 K, 1606.5 kPa, x2 = 0.273 | 0.0002203
313.15 K, 2083.3 kPa, x2 = 0.327 | 0.000207
313.15 K, 2445 kPa, x2 = 0.369 | 0.0001966
313.15 K, 3072.7 kPa, x2 = 0.425 | 0.0001827
313.15 K, 3613.6 kPa, x2 = 0.468 | 0.0001718
313.15 K, 4415.1 kPa, x2 = 0.519 | 0.0001596
313.15 K, 5100.5 kPa, x2 = 0.561 | 0.000149
333.15 K, 618.4 kPa, x2 = 0.093 | 0.0002678
333.15 K, 1333.3 kPa, x2 = 0.18 | 0.0002455
333.15 K, 1767.4 kPa, x2 = 0.229 | 0.0002327
333.15 K, 2294.9 kPa, x2 = 0.275 | 0.0002214
333.15 K, 2702.9 kPa, x2 = 0.316 | 0.0002107
333.15 K, 3411.9 kPa, x2 = 0.368 | 0.0001978
333.15 K, 4029.9 kPa, x2 = 0.409 | 0.0001874
333.15 K, 4942.5 kPa, x2 = 0.455 | 0.0001767
333.15 K, 5777.2 kPa, x2 = 0.501 | 0.000165

CCC[N+]1(C)CCCC1.O=S(=O)([N-]S(=O)(=O)C(F)(F)F)C(F)(F)F
[2]
Conditions | electrical conductivity [S/m] | mass density [kg/m3] | viscosity [mPa·s]
278.15 K | 0.158 | 1446.23 | 169.4
283.15 K | 0.206 | 1441.6 | 127.2
288.15 K | 0.262 | 1437 | 97.84
293.15 K | 0.327 | 1432.46 | 76.89
298.15 K | 0.4 | 1427.91 | 61.52
303.15 K | 0.483 | 1423.37 | 49.99
313.15 K | 0.675 | 1414.36 | 34.45
323.15 K | 0.902 | 1405.44 | 24.91
333.15 K | 1.16 | 1396.6 | 18.71
343.15 K | 1.46 | 1387.82 | 14.51
353.15 K | 1.78 | 1379.12 | 11.55
363.15 K | – | 1370.48 | 9.398
